From US20240009265A1, “METHODS OF TREATMENT COMPRISING STABLE REDUCED GLUTATHIONE” (Blue Sky Innovation, LLC, priority 2020, published 2024)
Where two headings read alike, the source gives them in different places.

What was measured:
[1] = system: subjects with chronic shingles and post-herpetic neuralgia (PHN); assay: Topical reduced glutathione in a liposomal carrier in chronic shingles / post-herpetic neuralgia; format: in vivo, human
Description: Most the subjects at the time of the first visit reported significant depression and suicidal thoughts. Most subjects also reported giving up hope. […] The self-rated pain averaged a 7, but many subjects reported that when a break-out was occurring, the pain could spike to a 10. Videos and pictures were taken where and when appropriate with proper releases documented.

[2] = system: subject with diabetic peripheral neuropathy (DN); assay: Topical and oral rGSH in diabetic peripheral neuropathy (case study); conditions: for outcome of diabetic neuropathy: person, 13 weeks of therapy
[3] = system: subjects with chemotherapy-induced peripheral neuropathy (CIPN)
Protocol: Subjects were treated with topical and oral rGSH in a natural liposomal carrier after initial consultation. Subjects began treatment prior to their second visit. Follow-up consultations with subjects occurred weekly to monthly according to symptoms and needs.
Procedures for measuring CIPN were based on interviews performed by a medical professional with subjects. The physician measured nerve sensitivity in some of the subjects using in-office medical instruments.

[4] = system: fibromyalgia syndrome (FMS) subjects; conditions: 43 subjects; rGSH with low copper diet and support product
Description: 43 fibromyalgia subjects underwent dietary changes supplements including: (a) a low copper diet, (b) a support product containing molybdenum, boron, zinc chelate, pyridoxine, N-Acetyl L-Cysteine, L-serine and L-glutamine, and (c) rGSH.

[5] = system: subject diagnosed with tardive dyskinesia (TD)
Protocol: Reduced glutathione was administered to the subject 5 times per day in a solution in the amount of about 18.25 mg per spray or about 91.25 mg per administration. The subject cleaned the area of application with a disinfectant wipe before topical application of the reduced glutathione. The topical rGSH was administered in 5 sprays of rGSH for a total dosage of about 91.25 mg. The administered rGSH dried for about 30 seconds before the subject was re-clothed. The facial movements and body movements of the subject were filmed once per week to analyze progression or loss of TD symptoms.
Topical rGSH was prescribed for 5 applications of 5 sprays each day to: (a) their right arm, (b) right jaw and masseter area, and (c) their spine. The total amount of administered rGSH was a total of 25 squirts per day (which is approximately 456 mg of rGSH via a Glutathione supplement) as applied by the nursing staff.

[6] = system: subject with partial and full thickness burn lesions
Protocol: The subject was treated with topical applications of rGSH. The subject was administered the rGSH 5-8 times a day over a 3-month period.
A subject had accidentally burned themself on an outdoor grill. The subject was treated with rGSH at 5-8 times a day with topical application. The subject was also treated with Cephalexin 500 mg in case of infection.

[7] = after 35 days of rGSH treatment

Nc1nc2c(ncn2COCCO)c(=O)[nH]1 [acyclovir, reference compound]
effect of earlier chronic medication on shingles/PHN pain ([1]; chronic doses before rGSH treatment): without substantial ameliorative effect

C[C@]12CC[C@H]3[C@@H](CCC4=CC(=O)CC[C@@]43C)[C@@H]1CC[C@@H]2O [injectable testosterone, testosterone, reference compound]
effect on the subject's issues (insulin sensitivity, muscle strength, neuropathy) ([2]; modest dose, before rGSH treatment): did not have a substantial effect

N[C@@H](CCC(=O)N[C@@H](CS)C(=O)NCC(=O)O)C(=O)O [rGSH, reduced glutathione]
time to major resolution of symptoms ([3]; Patient 5-C): ≤ 3 days
pain in the feet ([3]; Patient 5-C, Day 63): no longer felt pain in the feet
CIPN symptoms ([3]; Patient 5-D, Day 31): substantial decrease in symptoms
feeling better since starting treatment ([3]; Patient 5-D, Day 38): about 70%
decrease in symptoms ([3]; Patient 5-D, Day 52): 80%
CIPN symptoms resolved, as reported by the subject ([3]; Subject 5-A, Day 12, only took rGSH orally): about 40%
CIPN symptoms ([3]; Subject 5-B, Day 7): improved symptoms
improvement of symptoms since using rGSH ([3]; Subject 5-B, Day 42): 50%
resolution of CIPN symptoms ([3]; Subject 5-B, Day 84): 70%
resolution of CIPN symptoms ([3]; Subject 5-B, Day 112): 70%
resolution of CIPN symptoms ([3]; Subject 5-B, Day 245, rGSH stopped for a few months): 70%
FMS symptoms [4]: substantial resolution
pain in fibromyalgia subjects [4]: substantially reduced pain
renal or liver functions ([2]; after 13 weeks of therapy): No effect
HBA1C ([2]; after 13 weeks of therapy, 10.0% before): 10.1%
neuropathy in the hands ([2]; oral and topical rGSH, weekly examination): complete resolution in their hands in the first few weeks
outcome of diabetic neuropathy [2]: resolved substantially
outcome of diabetic neuropathy ([2]; listed as stable rGSH): resolved
diabetic neuropathy in seven other subjects ([2]; seven other subjects treated with stable rGSH): complete resolution
time to nearly complete resolution of symptoms ([1]; one subject with shingles and PHN for about nine years): ≤ 34 min
share of subjects with nearly complete resolution only over a more extended period ([1]; over a hundred patients and volunteers with shingles): Less than 5%
extended period to nearly complete resolution ([1]; the subjects with slower response): 2 to 5 days
outcome of TD ([5]; after 10 weeks of treatment): resolved completely
interval between involuntary jaw movements (masseter muscles) ([5]; after 21 days of topical rGSH, about 456 mg/day, before treatment about every 1-2 seconds): 4 to 5 s
interval between involuntary arm movements ([5]; after 21 days of topical rGSH, before treatment about every 1-2 seconds): 4 to 5 s
ambulation ([5]; after 42 days): no longer used assistance for walking up and down stairs
interval between facial and arm movements ([5]; after 42 days of topical rGSH): ~10 s
pain in shoulder, back and jaw ([5]; after 42 days, compared with the 21 day period): substantially decreased
involuntary facial or arm movement ([5]; after 70 days): no longer had involuntary facial or arm movement
pain ([5]; after 70 days): substantially free of pain
TD symptoms ([5]; after 70 days of rGSH administration): substantially free of symptoms
burn pain ([6]; 10 weeks after the burn): no longer had any pain
burn pain ([6]; after 21 days of rGSH treatment): tolerable
infection of the burn [6, 7]: No infection had occurred
state of the wound [6, 7]: dead skin and eschar were gone and new skin has started to epithelialize
state of the wound ([6]; after 49 days of treatment): nearly healed
burn pain within an hour of application ([6]; day of the burn): nearly dissipated
time until pain was subsiding after topical application ([6]; day of the burn): ≤ 30 min
course of burn healing ([6]; topical rGSH 5-8 times per day over a 3-month period): Healing commenced immediately with minimal pain, minimal scarring, no infection, and minimal drainage
